Laboratory results: US10100079B2, “Progesterone-cationic lipid hybrid as anticancer agent and the process of synthesis thereof” (Council of Scientific & Industrial Research, priority 2016, dated 2018)
Where two headings read alike, the source gives them in different places.

What was measured:
[1] = tested on: MDA-MB-231 (PgR-negative); experiment: Cell cycle assay by flow cytometry (PI), MDA-MB-231; type: cell-based, human; settings: MDA-MB-231, 10 μM, 24 h
Description: To measure the cellular DNA content, cell cycle assay was carried out. In this assay, first cells were synchronized at early S-phase by double thymidine blocking. When cell confluency was reached around 25-30% in 60 mm dish, cells were treated with 2 mM thymidine, diluted in 10% FBS containing DMEM, for 18 h to block cells at early S-phase. To release the blocking, media was discarded and washed with 1×PBS. Then the cells were incubated with fresh cell culture media containing 10% FBS for 9 h. After releasing, second blocking was done with 2 mM thymidine containing media for 17 h. After second blocking cells were released by discarding the thymidine supplemented media and kept in fresh media. All the respective treatments for cell cycle study were done after 2 h of second release.
S-phase synchronized cells were either kept untreated or treated with compound 1 (10 μM) and 6c (10 μM) for 24 h. Cells from different treatment groups were harvested, washed with 1×PBS, and fixed with 70% ethanol and kept at −20° C. for overnight. Then the ethanol was removed and washed with 1×PBS. […] After incubation cells were collected by centrifugation, washed with 1×PBS, re-suspended in 500 μL 1×PBS, and data was recorded using flow cytometer (FACS Canto II, Becton-Dickinson, San Jose, Calif., USA) and data were analyzed with FACS Diva software. […]

B16F10 = experiment: MTT cytotoxicity assay, B16F10; type: cell-based, murine
Description: (§1) All cells were grown into mycoplasma free condition. […] All cells were grown up to 75-85% confluency after which cells were trypsinized, counted and seeded, in 96-well plates for cell viability studies, 6-well plates for apoptosis studies, 60 mm dish for cell cycle studies and in 25 cm^2 or 75 cm^2 tissue culture flasks for Western blot studies. The primary stock of the cationic progesterone molecules were made in cell culture grade DMSO and from that secondary stock was prepared by serial dilution with cell culture grade DMSO. The final working concentrations were prepared by diluting the secondary stock in cell culture media keeping the DMSO concentration in working solution below 0.2% with respect to cell culture medium. […] For this assay, 12-18 h before treatment cells were plated in 96-well plate at 5000 cells/well density. […] After completion of the treatment, 10 μL of MTT solution (5 mg/mL) was added in each well and incubated for 4 h. Then the media was removed carefully, and the reduced MTT was dissolved in 1:1 (v/v) DMSO/Methanol and absorbance was measured using multimode reader (Synergy H1, BioTek). Results were represented as percentage of viability={[A550(treated cells)−background]/[A550(untreated cells)−background]}×100. The result was summarized and provided as IC50 table in Table 1.

COS-1 = experiment: MTT cytotoxicity assay, COS-1; type: cell-based; settings: Chlorocebus aethiops, read-out: IC50 COS-1
Description: as §1

[2] = tested on: cancer cells T47D, OVCAR-3, MDA-MB-231, MCF-7 and B16F10; experiment: MTT viability, all tested cancer cells (combination treatment study, FIG. 1A); type: cell-based; settings: 48 h; for toxicity in cancer cells: 10 μM (1+10C: 10 μM+10 μM)
Description: FIG. 1A: The viability studies of cancer cells T47D, OVCAR-3, MDA-MB-231, MCF-7 and B16F10 after 48 h of continuous treatment with compound 1 (10 μM), 10C [cationic lipid control molecule not containing progesterone moiety]
Cytotoxicity assay of the different compounds were carried out by using 3-(4,5-dimethylthiazol-2-yl)-2,5-diphenyltetrazolium bromide (MTT). For this assay, 12-18 h before treatment cells were plated in 96-well plate at 5000 cells/well density. After incubation cells were treated continuously for 48 h with respective compounds at different concentration (2.5 μM-40 μM). After completion of the treatment, 10 μL of MTT solution (5 mg/mL) was added in each well and incubated for 4 h. Then the media was removed carefully, and the reduced MTT was dissolved in 1:1 (v/v) DMSO/Methanol and absorbance was measured using multimode reader (Synergy H1, BioTek). Results were represented as percentage of viability={[A550(treated cells)−background]/[A550(untreated cells)−background]}×100. The result was summarized and provided as IC50 table in Table 1.
For combination treatment effect, cells were plated in 96 well plates at 5000 cells/well. […] Following 48 h of treatment cell viability was measured following above mentioned MTT study.

HUVEC = experiment: Viability study in HUVEC cell (FIG. 7A); type: cell-based, Human; settings: 48 h
Description: 2 μM Doxorubicin (DOX) was taken as positive control. + indicates p<0.01.
T47D, MCF-7, MDA-MB-231 (human breast carcinoma), OVCAR-3 (Human ovary carcinoma), B16F10 (murine melanoma), HUVEC (Human umbilical vein endothelium) cells were purchased from the American Type Cell Culture (ATCC, USA) and CHO (Chinese hamster ovary), NIH-3T3 (murine embryo fibroblast) and COS-1 (Kidney fibroblast) cells were purchased from National Center for Cell Sciences (Pune, India). All cells were grown into mycoplasma free condition. […] All cells were grown up to 75-85% confluency after which cells were trypsinized, counted and seeded, in 96-well plates for cell viability studies, 6-well plates for apoptosis studies, 60 mm dish for cell cycle studies and in 25 cm^2 or 75 cm^2 tissue culture flasks for Western blot studies.
Cytotoxicity assay of the different compounds were carried out by using 3-(4,5-dimethylthiazol-2-yl)-2,5-diphenyltetrazolium bromide (MTT). […] Then the media was removed carefully, and the reduced MTT was dissolved in 1:1 (v/v) DMSO/Methanol and absorbance was measured using multimode reader (Synergy H1, BioTek). […]

[3] = tested on: chick embryo vascularization; experiment: Chick embryo angiogenesis (CEA) assay; type: in vivo, chicken; settings: 20 μL, 5 μM, 4 h
Description: FIG. 7B: In vivo chick embryo angiogenesis (CEA) assay. Vascular sprouting was imaged following 0 h (left panel) and 4 h (right panel) treatment with DMSO, 1 (20 μL, 5 μM) and 6c (20 μL, 5 μM). Damaged vessel is indicated by black arrow.
To measure the anti-angiogenic property chick embryo angiogenesis study was carried out. For this study, fertile chicken eggs were incubated at 37° C. humidified incubator. After four day of incubation, the […] of the eggs were cautiously removed using forceps. After that, the egg yolks were carefully treated with DMSO (20 μL; 0.1% DMSO in IX PBS), compound 1 (20 μL; 5 μM), and 6c (20 μL; 5 μM) for 4 h. Images were captured at 0 and 4 h of incubation with a stereomicroscope (Leica). Different angiogenic parameters were quantified using Angioquant software.

OVCAR-3 = experiment: MTT cytotoxicity assay, OVCAR-3; type: cell-based; settings: Homo sapiens, read-out: IC50 OVCAR-3
Description: as §1

Structure (SMILES)	total cell population in G2/M phase [1]	IC50 (B16F10; Mus musculus, B16-F10, MTT, 48 h continuous treatment, read-out: IC50 B16F10)	IC50 (COS-1; COS-1, MTT, 48 h continuous treatment, non-cancer cell)	toxicity in cancer cells [2]	effect on cell growth (HUVEC; 2.5 μM or even 10 μM)	effect on blood vessels / vascularization network [3]	IC50 (OVCAR-3; OVCAR-3, MTT, 48 h continuous treatment)	IC50 (B16F10; Mus musculus, B16-F10, 48 h, read-out: IC50 B16F10, MTT, 48 h continuous treatment)	IC50 (B16F10; read-out: IC50 B16F10, MTT, 48 h continuous treatment)	IC50 (COS-1; COS-1, 48 h)	cell killing in all tested cancer cells ([2]; 2.5 μM-40 μM)	inhibition at 2.5 µM (HUVEC; Homo sapiens, 2.5 μM, read-out: inhibition of cell growth)	IC50 (OVCAR-3; OVCAR-3, 48 h)
CC(=O)[C@H]1CC[C@H]2[C@@H]3CCC4=CC(=O)CC[C@]4(C)[C@H]3CC[C@]12C [Compound 1, Progesterone]	21%	> 20 µM	> 20 µM	did not impart any significant toxicity	little to no effect	either no effect or little increase in the vascularization network	> 20 µM						
CCCCCCCCCC[N+](C)(CCCCCCCCCC)CCNC(=O)CCC(=O)O[C@@H](C)[C@H]1CCC2C3CCC4=CC(=O)CC[C@]4(C)C3CC[C@@]21C (stereo partly drawn) [Compound 6c, N-decyl-N-(2-(4-((1S)-1-((10R,13S,17S)-10,13-dimethyl-3-oxo-2,3,6,7,8,9,10,11,12,13,14, 15,16,17-tetradecahydro-1H-cyclopenta[a]phenanthren-17-yl)ethoxy)-4-oxobutanamido)ethyl)-N-methyldecan-1-aminium chloride]	34%			significant toxicity only in cancer cells		blood vessels were either significantly damaged or new blood vessel formation was delayed		3.63 ± 0.16 µM	6.67 ± 0.27 µM	> 20 µM	significant amount of cell killing	50%	4.48 ± 0.23 µM
